Results reported in patent US10738028B2, “Spiro three-membered ring, spiro five-membered ring peptide deformylase inhibitor and use thereof in antibacteria and anti-tumor” (priority 2016, dated 2020).

How the values were obtained:
Type in all cases: cell-based
[1] = tested on: HCT-116 colorectal cancer cell line; assay: CCK-8 proliferation inhibition; conditions: Homo sapiens, HCT-116, 72 h, concentration of 30 μM; 72 hours; CCK-8; read-out: HCT116 inhibition rate/%
Summary of the method: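 Viability read-out: 1:10 diluted CCK-8 after 72 h compound exposure at 37 °C, 5% CO2. Cells (2000/well, McCoy's 5A plus 10% newborn bovine serum) pre-cultured overnight; vehicle control 1‰ DMSO.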

[2] = tested on: methicillin-resistant Staphylococcus aureus (MRSA); assay: MIC, two-fold agar dilution (CLSI), clinical isolates
Description: (§1) 1. The invention adopts the two-fold agar dilution method recommended by the operating procedure of antimicrobial susceptibility testing set by American Clinical and Laboratory Standards Institute (CLSI) to determine the Minimum Inhibitory Concentration (MIC) of the test samples against the tested strains.

[3] = tested on: methicillin-sensitive Staphylococcus aureus (MSSA); assay: as above
Description: as §1

[4] = tested on: methicillin-sensitive Staphylococcus epidermidis (MSSE); assay: as above
Description: as §1

[5] = tested on: Enterococcus faecium (EFM); assay: as above
Description: as §1

[6] = tested on: Streptococcus pneoumoniae (SPN); assay: as above
Description: as §1

[7] = tested on: Moraxella catarrhalis (BCA); assay: as above
Description: as §1

[8] = tested on: Enterococcus faecalis (EFA); assay: as above
Description: as §1

[9] = tested on: methicillin-resistant Staphylococcus epidermidis (MRSE); assay: as above
Description: as §1

[10] = tested on: Escherichia coli (including ESBLs, non-ESBLs); assay: as above
Description: as §1

CCCC[C@H](CC(=O)NO)C(=O)N1CC2(CC2)C[C@H]1C(=O)Nc1cnccn1 [Example 44]
> 32 µg/mL: Anti-bacterial activity (MIC), strain MSSA 15-6 ([3]; clinical isolate MSSA 15-6) | Anti-bacterial activity (MIC), strain EFM 15-1 ([5]; clinical isolate EFM 15-1) | Anti-bacterial activity (MIC), strain EFM 15-2 ([5]; clinical isolate EFM 15-2) | Anti-bacterial activity (MIC), strain EFM 15-3 ([5]; clinical isolate EFM 15-3) | Anti-bacterial activity (MIC), strain EFM 15-4 ([5]; clinical isolate EFM 15-4) | Anti-bacterial activity (MIC), strain EFA 15-1 ([8]; clinical isolate EFA 15-1) | Anti-bacterial activity (MIC), strain EFA 15-2 ([8]; clinical isolate EFA 15-2) | Anti-bacterial activity (MIC), strain EFA 15-3 ([8]; clinical isolate EFA 15-3) | Anti-bacterial activity (MIC), strain EFA 15-4 ([8]; clinical isolate EFA 15-4) | Anti-bacterial activity (MIC), strain EFA 15-5 ([8]; clinical isolate EFA 15-5) | Anti-bacterial activity (MIC), strain EFA 15-6 ([8]; clinical isolate EFA 15-6) | Anti-bacterial activity (MIC), strain ECO+ 15-2 ([10]; clinical isolate ECO+ 15-2) | Anti-bacterial activity (MIC), strain ECO+ 15-3 ([10]; clinical isolate ECO+ 15-3) | Anti-bacterial activity (MIC), strain ECO− 15-2 ([10]; clinical isolate ECO− 15-2) | Anti-bacterial activity (MIC), strain ECO− 15-3 ([10]; clinical isolate ECO− 15-3) | Anti-bacterial activity (MIC), strain ECO− 15-4 ([10]; clinical isolate ECO− 15-4)
2 µg/mL: Anti-bacterial activity (MIC), strain EFM 15-6 ([5]; clinical isolate EFM 15-6) | Anti-bacterial activity (MIC), strain BCA 14-6 ([7]; clinical isolate BCA 14-6) | Anti-bacterial activity (MIC), strain BCA 14-10 ([7]; clinical isolate BCA 14-10)
4 µg/mL: Anti-bacterial activity (MIC), strain BCA 14-1 ([7]; clinical isolate BCA 14-1) | Anti-bacterial activity (MIC), strain BCA 14-4 ([7]; clinical isolate BCA 14-4) | Anti-bacterial activity (MIC), strain BCA 14-7 ([7]; clinical isolate BCA 14-7) | Anti-bacterial activity (MIC), strain BCA 14-8 ([7]; clinical isolate BCA 14-8)
1 µg/mL: Anti-bacterial activity (MIC), strain MRSA 15-2 ([2]; clinical isolate MRSA 15-2) | Anti-bacterial activity (MIC), strain MRSA 15-3 ([2]; clinical isolate MRSA 15-3) | Anti-bacterial activity (MIC), strain MRSA 15-4 ([2]; clinical isolate MRSA 15-4) | Anti-bacterial activity (MIC), strain MSSA 15-4 ([3]; clinical isolate MSSA 15-4) | Anti-bacterial activity (MIC), strain MSSA 15-5 ([3]; clinical isolate MSSA 15-5) | Anti-bacterial activity (MIC), strain MSSE 15-3 ([4]; clinical isolate MSSE 15-3) | Anti-bacterial activity (MIC), strain MSSE 15-4 ([4]; clinical isolate MSSE 15-4) | Anti-bacterial activity (MIC), strain MSSE 15-5 ([4]; clinical isolate MSSE 15-5) | Anti-bacterial activity (MIC), strain MSSE 15-6 ([4]; clinical isolate MSSE 15-6) | Anti-bacterial activity (MIC), strain EFM 15-5 ([5]; clinical isolate EFM 15-5) | Anti-bacterial activity (MIC), strain SPN 16-2 ([6]; clinical isolate SPN 16-2) | Anti-bacterial activity (MIC), strain SPN 16-4 ([6]; clinical isolate SPN 16-4) | Anti-bacterial activity (MIC), strain BCA 14-5 ([7]; clinical isolate BCA 14-5) | Anti-bacterial activity (MIC), strain MRSE 15-1 ([9]; clinical isolate MRSE 15-1) | Anti-bacterial activity (MIC), strain MRSE 15-2 ([9]; clinical isolate MRSE 15-2) | Anti-bacterial activity (MIC), strain MRSE 15-3 ([9]; clinical isolate MRSE 15-3) | Anti-bacterial activity (MIC), strain MRSE 15-7 ([9]; clinical isolate MRSE 15-7) | Anti-bacterial activity (MIC), strain ECO+ 15-4 ([10]; clinical isolate ECO+ 15-4)
0.5 µg/mL: Anti-bacterial activity (MIC), strain MRSA 15-1 ([2]; clinical isolate MRSA 15-1) | Anti-bacterial activity (MIC), strain MSSA 15-3 ([3]; clinical isolate MSSA 15-3)
32 µg/mL: Anti-bacterial activity (MIC), strain EFA 15-9 ([8]; clinical isolate EFA 15-9) | Anti-bacterial activity (MIC), strain ECO+ 15-1 ([10]; clinical isolate ECO+ 15-1) | Anti-bacterial activity (MIC), strain ECO− 15-1 ([10]; clinical isolate ECO− 15-1)
21%: inhibition at 30 µM [1]
